Laboratory results: ChEMBL document CHEMBL1909046, “DrugMatrix in vitro pharmacology data”

Key:
[1] = molecular target: Aldo-keto reductase family 1 member B1 (Rattus norvegicus, UniProt P07943); assay type: tissue-based, Lens of camera-type eye;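 further: inhibition of aldose reductase enzyme activity, measured with DL-glyceraldehyde as the substrate; in other assays of this panel Not Active means under 50% inhibition at 10 µM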
[2] = DRUGMATRIX: ATPase, Na+/K+ enzyme inhibition (substrate: ATP); assay type: tissue-based, Sus scrofa, Heart; settings: Not Active = under 50% inhibition at 10 µM
Substance-K receptor = molecular target: T1, Substance-K receptor (Homo sapiens, UniProt P21452); assay type: cell membranes, CHO, Membrane; settings: cho; further: in other assays of this panel Not Active means under 50% inhibition at 10 µM
T1 sequence (P21452 whole entry): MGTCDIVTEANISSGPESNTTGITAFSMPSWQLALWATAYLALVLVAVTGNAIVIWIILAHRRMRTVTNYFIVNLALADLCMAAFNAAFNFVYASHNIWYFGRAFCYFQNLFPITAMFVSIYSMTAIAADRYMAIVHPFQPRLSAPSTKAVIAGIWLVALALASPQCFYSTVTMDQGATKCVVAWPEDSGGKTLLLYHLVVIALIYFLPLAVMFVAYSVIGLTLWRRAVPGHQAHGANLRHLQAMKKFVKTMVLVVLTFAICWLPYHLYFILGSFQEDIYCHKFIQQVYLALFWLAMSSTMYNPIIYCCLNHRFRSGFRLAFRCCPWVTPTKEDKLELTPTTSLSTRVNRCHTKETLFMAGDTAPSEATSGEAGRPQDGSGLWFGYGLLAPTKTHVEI

[3] = DRUGMATRIX: Tumor Necrosis Factor (TNF), Non-Selective radioligand binding (ligand: [125I] TNF-alpha); assay type: cell membranes, Membrane; settings: u-937; Not Active = under 50% inhibition at 10 µM
[4] = molecular target: T2, Vasoactive intestinal polypeptide receptor 1 (Homo sapiens, UniProt P32241); assay type: cell membranes, Membrane; settings: ht-29; further: in other assays of this panel Not Active means under 50% inhibition at 10 µM
T2 sequence (P32241 whole entry): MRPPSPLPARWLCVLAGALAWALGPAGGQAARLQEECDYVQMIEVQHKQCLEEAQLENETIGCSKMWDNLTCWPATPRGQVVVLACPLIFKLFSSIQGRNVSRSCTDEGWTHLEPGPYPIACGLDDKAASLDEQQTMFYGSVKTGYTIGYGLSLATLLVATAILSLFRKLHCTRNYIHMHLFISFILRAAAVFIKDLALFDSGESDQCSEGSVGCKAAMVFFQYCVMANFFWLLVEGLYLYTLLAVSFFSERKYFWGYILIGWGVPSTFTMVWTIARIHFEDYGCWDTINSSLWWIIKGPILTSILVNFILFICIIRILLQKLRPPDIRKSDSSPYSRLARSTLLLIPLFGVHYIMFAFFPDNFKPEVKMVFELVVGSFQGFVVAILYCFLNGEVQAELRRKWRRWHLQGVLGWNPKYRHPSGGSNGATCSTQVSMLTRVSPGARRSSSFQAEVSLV

Cannabinoid receptor 1 = Cannabinoid receptor 1 (Homo sapiens, UniProt P21554); assay type: cell membranes, Membrane; settings: chem-1; further: in other assays of this panel Not Active means under 50% inhibition at 10 µM
[5] = DRUGMATRIX: GABAA, Muscimol, Central radioligand binding (ligand: [3H] Muscimol); assay type: cell membranes, Rattus norvegicus, Wistar, Brain, Membrane; settings: Not Active = under 50% inhibition at 10 µM
[6] = DRUGMATRIX: Glutamate, Kainate radioligand binding (ligand: [3H] Kainic acid); assay type: cell membranes, Rattus norvegicus, Wistar, Brain, Membrane; settings: Not Active = under 50% inhibition at 10 µM
Melanocortin receptor 4 = Melanocortin receptor 4 (Homo sapiens, UniProt P32245); assay type: cell membranes, Membrane; settings: hek293; further: in other assays of this panel Not Active means under 50% inhibition at 10 µM
Melanocortin receptor 5 = Melanocortin receptor 5 (Homo sapiens, UniProt P33032); assay type: cell membranes, HEK293, Membrane; settings: hek293; further: in other assays of this panel Not Active means under 50% inhibition at 10 µM
[7] = molecular target: T3, Muscarinic acetylcholine receptor M2 (Homo sapiens, UniProt P08172); assay type: cell membranes, CHO-K1, Membrane; settings: cho-k1; further: in other assays of this panel Not Active means under 50% inhibition at 10 µM
T3 sequence (P08172 whole entry): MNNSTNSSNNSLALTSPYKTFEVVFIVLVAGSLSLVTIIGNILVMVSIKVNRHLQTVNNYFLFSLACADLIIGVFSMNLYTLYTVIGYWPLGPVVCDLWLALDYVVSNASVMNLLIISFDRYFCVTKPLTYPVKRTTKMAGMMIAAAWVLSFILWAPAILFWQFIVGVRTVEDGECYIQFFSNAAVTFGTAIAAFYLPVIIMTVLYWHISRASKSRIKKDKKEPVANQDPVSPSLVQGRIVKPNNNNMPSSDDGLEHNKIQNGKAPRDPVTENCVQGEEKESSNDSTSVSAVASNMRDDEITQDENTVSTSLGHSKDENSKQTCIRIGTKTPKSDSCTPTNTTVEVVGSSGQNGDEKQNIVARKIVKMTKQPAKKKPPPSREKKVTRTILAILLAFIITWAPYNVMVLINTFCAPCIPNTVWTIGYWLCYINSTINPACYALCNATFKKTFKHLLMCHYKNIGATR

[8] = molecular target: T4, Neuropeptide Y receptor type 2 (Homo sapiens, UniProt P49146); assay type: cell membranes, Membrane; settings: kan-ts; further: in other assays of this panel Not Active means under 50% inhibition at 10 µM
T4 sequence (P49146 whole entry): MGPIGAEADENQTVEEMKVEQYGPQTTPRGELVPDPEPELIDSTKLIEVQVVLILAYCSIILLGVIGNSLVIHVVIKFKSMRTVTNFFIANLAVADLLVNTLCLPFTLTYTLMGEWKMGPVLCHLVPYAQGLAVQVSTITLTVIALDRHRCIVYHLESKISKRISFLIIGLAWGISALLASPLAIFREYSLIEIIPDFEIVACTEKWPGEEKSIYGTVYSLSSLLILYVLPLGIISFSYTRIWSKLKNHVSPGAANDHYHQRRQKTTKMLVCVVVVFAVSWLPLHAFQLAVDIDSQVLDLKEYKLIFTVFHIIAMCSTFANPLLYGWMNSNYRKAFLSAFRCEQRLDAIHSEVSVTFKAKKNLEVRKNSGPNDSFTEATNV

[9] = DRUGMATRIX: Phorbol Ester radioligand binding (ligand: [3H] PDBu); assay type: cell membranes, Mus musculus, ICR, Brain, Membrane; settings: Not Active = under 50% inhibition at 10 µM
[10] = DRUGMATRIX: Potassium Channel [KATP] radioligand binding (ligand: [3H] Glyburide); assay type: cell membranes, Membrane; settings: hit-t15; Not Active = under 50% inhibition at 10 µM
[11] = molecular target: Protein kinase C alpha type (Homo sapiens, UniProt P17252); assay type: cell-based; settings: sf9
[12] = molecular target: Protein phosphatase 3 catalytic subunit alpha (Homo sapiens, UniProt Q08209); parameters: species or system Escherichia coli
[13] = molecular target: 5-hydroxytryptamine receptor 1B (Rattus norvegicus, UniProt P28564); assay type: cell membranes, Wistar, Cerebral cortex, Membrane; further: in other assays of this panel Not Active means under 50% inhibition at 10 µM
Sequence of 5-hydroxytryptamine receptor 1B (P28564 whole entry): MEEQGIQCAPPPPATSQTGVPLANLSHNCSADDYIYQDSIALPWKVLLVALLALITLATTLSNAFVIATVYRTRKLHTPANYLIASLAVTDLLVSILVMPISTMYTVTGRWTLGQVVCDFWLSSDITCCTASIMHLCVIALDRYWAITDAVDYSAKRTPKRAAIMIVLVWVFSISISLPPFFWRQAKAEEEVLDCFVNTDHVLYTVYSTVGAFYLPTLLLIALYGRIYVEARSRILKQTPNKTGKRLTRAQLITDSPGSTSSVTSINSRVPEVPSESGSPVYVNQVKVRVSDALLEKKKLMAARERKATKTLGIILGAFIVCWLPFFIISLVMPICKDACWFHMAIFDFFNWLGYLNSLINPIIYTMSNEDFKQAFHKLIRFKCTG

Sequence of Cannabinoid receptor 1 (P21554 whole entry): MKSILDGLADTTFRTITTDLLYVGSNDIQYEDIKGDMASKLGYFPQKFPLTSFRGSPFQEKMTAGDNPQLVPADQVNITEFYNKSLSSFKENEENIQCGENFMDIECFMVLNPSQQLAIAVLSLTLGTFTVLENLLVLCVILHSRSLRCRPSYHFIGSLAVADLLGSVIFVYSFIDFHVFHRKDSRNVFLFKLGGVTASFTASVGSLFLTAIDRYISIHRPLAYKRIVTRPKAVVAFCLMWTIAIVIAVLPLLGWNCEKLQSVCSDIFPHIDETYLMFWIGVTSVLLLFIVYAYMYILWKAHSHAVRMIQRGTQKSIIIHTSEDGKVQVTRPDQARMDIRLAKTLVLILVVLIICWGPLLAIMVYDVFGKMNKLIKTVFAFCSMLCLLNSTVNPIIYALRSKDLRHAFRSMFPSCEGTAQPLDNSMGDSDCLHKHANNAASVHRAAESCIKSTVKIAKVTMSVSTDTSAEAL
Sequence of Melanocortin receptor 4 (P32245 whole entry): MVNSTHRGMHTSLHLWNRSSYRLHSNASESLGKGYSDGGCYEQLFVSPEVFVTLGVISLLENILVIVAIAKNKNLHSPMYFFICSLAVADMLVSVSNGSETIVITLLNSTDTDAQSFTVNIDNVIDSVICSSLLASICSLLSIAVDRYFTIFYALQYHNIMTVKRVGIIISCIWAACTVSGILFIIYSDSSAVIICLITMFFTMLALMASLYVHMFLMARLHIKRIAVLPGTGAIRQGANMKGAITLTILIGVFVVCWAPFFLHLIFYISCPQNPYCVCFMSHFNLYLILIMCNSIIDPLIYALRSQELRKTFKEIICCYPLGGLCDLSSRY
Sequence of Melanocortin receptor 5 (P33032 whole entry): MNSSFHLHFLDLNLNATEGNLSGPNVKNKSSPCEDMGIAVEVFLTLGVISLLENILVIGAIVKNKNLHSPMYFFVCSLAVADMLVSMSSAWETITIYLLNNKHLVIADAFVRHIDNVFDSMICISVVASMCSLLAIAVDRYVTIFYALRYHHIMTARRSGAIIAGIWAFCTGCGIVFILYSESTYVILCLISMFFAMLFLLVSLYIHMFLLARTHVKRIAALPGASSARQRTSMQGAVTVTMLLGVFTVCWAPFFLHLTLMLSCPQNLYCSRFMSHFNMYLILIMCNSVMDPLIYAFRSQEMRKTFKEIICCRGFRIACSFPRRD

Cc1cc(NS(=O)(=O)c2ccc(N)cc2)no1 [SULFAMETHOXAZOLE]
Not Active: IC50 [1] | IC50 [2] | Ki [2] | IC50 (Substance-K receptor) | IC50 [3] | Ki [3] | IC50 [4] | IC50 (Cannabinoid receptor 1) | IC50 [5] | Ki [5] | IC50 [6] | Ki [6] | IC50 (Melanocortin receptor 4) | IC50 (Melanocortin receptor 5) | IC50 [7] | IC50 [8] | IC50 [9] | Ki [9] | IC50 [10] | Ki [10] | IC50 [11] | IC50 [12] | IC50 [13]

Nc1ccc(S(N)(=O)=O)cc1 [SULFANILAMIDE]
Not Active: IC50 [1] | IC50 [2] | Ki [2] | IC50 (Substance-K receptor) | IC50 [3] | Ki [3] | IC50 [4] | IC50 (Cannabinoid receptor 1) | IC50 [5] | Ki [5] | IC50 [6] | Ki [6] | IC50 (Melanocortin receptor 4) | IC50 (Melanocortin receptor 5) | IC50 [7] | IC50 [8] | IC50 [9] | Ki [9] | IC50 [10] | Ki [10] | IC50 [11] | IC50 [12] | IC50 [13]

Nc1ccc(S(=O)(=O)Nc2ccnn2-c2ccccc2)cc1 [SULFAPHENAZOLE]
Not Active: IC50 [1] | IC50 [2] | Ki [2] | IC50 (Substance-K receptor) | IC50 [3] | Ki [3] | IC50 [4] | IC50 (Cannabinoid receptor 1) | IC50 [5] | Ki [5] | IC50 [6] | Ki [6] | IC50 (Melanocortin receptor 4) | IC50 (Melanocortin receptor 5) | IC50 [7] | IC50 [8] | IC50 [9] | Ki [9] | IC50 [10] | Ki [10] | IC50 [11] | IC50 [12] | IC50 [13]

C=CC[C@@H]1/C=C(\C)C[C@H](C)C[C@H](OC)[C@H]2O[C@@](O)(C(=O)C(=O)N3CCCC[C@H]3C(=O)O[C@H](/C(C)=C/[C@@H]3CC[C@@H](O)[C@H](OC)C3)[C@H](C)[C@@H](O)CC1=O)[C@H](C)C[C@@H]2OC [TACROLIMUS ANHYDROUS]
Not Active: IC50 [1] | IC50 [2] | Ki [2] | IC50 (Substance-K receptor) | IC50 [3] | Ki [3] | IC50 [4] | IC50 (Cannabinoid receptor 1) | IC50 [5] | Ki [5] | IC50 [6] | Ki [6] | IC50 (Melanocortin receptor 4) | IC50 (Melanocortin receptor 5) | IC50 [7] | IC50 [8] | IC50 [9] | Ki [9] | IC50 [10] | Ki [10] | IC50 [11] | IC50 [12] | IC50 [13]

CC1CN(c2cc3c(cc2F)c(=O)c(C(=O)O)cn3-c2ccc(F)cc2F)CCN1 (stereo not given) [TEMAFLOXACIN]
Not Active: IC50 [1] | IC50 [2] | Ki [2] | IC50 (Substance-K receptor) | IC50 [3] | Ki [3] | IC50 [4] | IC50 (Cannabinoid receptor 1) | IC50 [5] | Ki [5] | IC50 [6] | Ki [6] | IC50 (Melanocortin receptor 4) | IC50 (Melanocortin receptor 5) | IC50 [7] | IC50 [8] | IC50 [9] | Ki [9] | IC50 [10] | Ki [10] | IC50 [11] | IC50 [12] | IC50 [13]
